Measurements published in ChEMBL document CHEMBL2176906, “Diterpenoids isolated from Sideritis species protect astrocytes against oxidative stress via Nrf2” (J Nat Prod, 2012).
Calls of active or inactive are those of the source. The rule behind the calls is not given here.

What was measured:
[1] = Cytotoxicity against human U373MG cells assessed as dye reduction at 1 to 10 uM after 24 hrs by MTT assay; format: cell-based, U-373MG ATCC; details: read-out: Activity
U373 MG [2] = assay: Inhibition of H2O2-induced oxidative stress in human U373MG cells assessed as GSSG level per mg protein at 10 uM by fluorimetric method (reference value: 9.2 +/- 0.9 nmol/mg protein); format: functional, U-373MG ATCC
[3] = molecular target: T1, Nuclear factor erythroid 2-related factor 2 (Homo sapiens) (UniProt Q16236); assay: Induction of Nrf2-mediated SOD protein expression in H2O2-stimulated human U373MG cells preincubated at 10 uM for 24 hrs before H2O2 challenge by Western blot method; format: cell-based; details: U-373MG ATCC
T1 sequence (whole entry): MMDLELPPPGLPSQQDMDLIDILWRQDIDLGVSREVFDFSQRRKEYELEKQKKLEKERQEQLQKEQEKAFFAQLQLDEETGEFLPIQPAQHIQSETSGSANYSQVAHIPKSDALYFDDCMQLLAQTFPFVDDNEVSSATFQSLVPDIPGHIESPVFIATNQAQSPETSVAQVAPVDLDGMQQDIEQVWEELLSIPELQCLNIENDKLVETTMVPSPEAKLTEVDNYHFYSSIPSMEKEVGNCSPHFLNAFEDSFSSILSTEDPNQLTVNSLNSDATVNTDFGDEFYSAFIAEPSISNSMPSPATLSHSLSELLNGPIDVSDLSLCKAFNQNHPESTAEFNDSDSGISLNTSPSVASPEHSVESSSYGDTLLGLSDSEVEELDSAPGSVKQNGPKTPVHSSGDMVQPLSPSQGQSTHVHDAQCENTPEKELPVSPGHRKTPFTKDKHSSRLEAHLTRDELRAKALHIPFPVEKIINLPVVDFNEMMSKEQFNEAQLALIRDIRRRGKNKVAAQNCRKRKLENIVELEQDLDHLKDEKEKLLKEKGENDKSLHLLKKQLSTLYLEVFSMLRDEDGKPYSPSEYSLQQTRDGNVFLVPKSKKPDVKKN

U373 MG [4] = assay: Inhibition of H2O2-induced oxidative stress in human U373MG cells assessed as GSH/GSSG ratio at 5 uM (reference value: 1.8 +/- 0.1 ); format: functional, U-373MG ATCC
U373 MG [5] = assay: Inhibition of H2O2-induced oxidative stress in human U373MG cells assessed as GSSG level per mg protein at 5 uM by fluorimetric method (reference value: 9.2 +/- 0.9 nmol/mg protein); format: functional, U-373MG ATCC
U373 MG [6] = assay: Induction of selenium-dependent GPx activity in human U373MG cells assessed as […] per mg protein preincubated at 10 uM for 24 hrs before H2O2 challenge by fluorimetric method (reference value: 14.7 +/- 2.9 nmol/min/mg protein); format: functional, U-373MG ATCC
U373 MG [7] = assay: Induction of Nrf2 nuclear protein expression in H2O2-stimulated human U373MG cells preincubated at 5 uM for 24 hrs before H2O2 challenge by Western blot method; format: functional, cell-based; details: U-373MG ATCC
U373 MG [8] = assay: Induction of total GPx activity in human U373MG cells assessed as […] per mg protein preincubated at 10 uM for 24 hrs before H2O2 challenge by fluorimetric method (reference value: 58.5 +/- 5.1 nmol/min/mg protein); format: functional, U-373MG ATCC
[9] = molecular target: T1, Nuclear factor erythroid 2-related factor 2 (Homo sapiens); assay: Induction of Nrf2-mediated GPx protein expression in H2O2-stimulated human U373MG cells preincubated at 10 uM for 24 hrs before H2O2 challenge by Western blot method; format: cell-based; details: U-373MG ATCC
U373 MG [10] = assay: Inhibition of H2O2-induced lipid peroxidation in human U373MG cells assessed as reduction in MDA levels per mg protein at 10 uM by HPLC analysis (reference value: 0.95 +/- 0.03 nmol/mg protein); format: functional, U-373MG ATCC
U373 MG [11] = assay: Induction of Glutathione reductase activity in human U373MG cells assessed as […] per mg protein preincubated at 10 uM for 24 hrs before H2O2 challenge by fluorimetric method (reference value: 9.3 +/- 2.2 nmol/min/mg protein); format: functional, U-373MG ATCC
U373 MG [12] = assay: Induction of SOD activity in human U373MG cells assessed per mg protein preincubated at 5 uM for 24 hrs before H2O2 challenge by fluorimetric method (reference value: 14.2 +/- 3 UI/mg protein); format: functional, U-373MG ATCC
U373 MG [13] = assay: Inhibition of AAPH-induced oxidative stress in human U373MG cells assessed as peroxy radical scavenging activity at 5 uM by ORAC assay; format: functional, cell-based; details: U-373MG ATCC
[14] = molecular target: T1, Nuclear factor erythroid 2-related factor 2 (Homo sapiens); assay: Induction of Nrf2-mediated GPx protein expression in H2O2-stimulated human U373MG cells preincubated at 5 uM for 24 hrs before H2O2 challenge by Western blot method; format: cell-based; details: U-373MG ATCC
U373 MG [15] = assay: Induction of selenium-dependent GPx activity in human U373MG cells assessed as […] per mg protein preincubated at 5 uM for 24 hrs before H2O2 challenge by fluorimetric method (reference value: 14.7 +/- 2.9 nmol/min/mg protein); format: functional, U-373MG ATCC
U373 MG [16] = assay: Inhibition of H2O2-induced oxidative stress in human U373MG cells assessed as GSH level per mg protein at 5 uM by fluorimetric method (reference value: 17.1 +/- 1.7 nmol/mg protein); format: functional, U-373MG ATCC
U373 MG [17] = assay: Induction of ROS production in human U373MG cells at 10 uM after 24 hrs by DCFH-DA assay; format: functional, cell-based; details: U-373MG ATCC
U373 MG [18] = assay: Induction of CAT activity in human U373MG cells assessed per mg protein preincubated at 10 uM for 24 hrs before H2O2 challenge by fluorimetric method (reference value: 18.9 +/- 0.4 UI/mg protein); format: functional, U-373MG ATCC
U373 MG [19] = assay: Induction of Nrf2 nuclear protein expression in H2O2-stimulated human U373MG cells preincubated at 10 uM for 24 hrs before H2O2 challenge by Western blot method; format: functional, cell-based; details: U-373MG ATCC
U-373MG ATCC = assay: Antioxidant activity in human U373MG cells assessed as reduction in H2O2-induced morphological changes preincubated at 5 uM for 24 hrs before H2O2 challenge by phase-contrast microscopy; format: functional, cell-based
U373 MG [20] = assay: Inhibition of H2O2-induced oxidative stress in human U373MG cells assessed as GSH level per mg protein at 10 uM by fluorimetric method (reference value: 17.1 +/- 1.7 nmol/mg protein); format: functional, U-373MG ATCC
U373 MG [21] = assay: Induction of total GPx activity in human U373MG cells assessed as […] per mg protein preincubated at 5 uM for 24 hrs before H2O2 challenge by fluorimetric method (reference value: 58.5 +/- 5.1 nmol/min/mg protein); format: functional, U-373MG ATCC
[22] = molecular target: T1, Nuclear factor erythroid 2-related factor 2 (Homo sapiens); assay: Induction of Nrf2-mediated CAT protein expression in H2O2-stimulated human U373MG cells preincubated at 10 uM for 24 hrs before H2O2 challenge by Western blot method; format: cell-based; details: U-373MG ATCC
U373 MG [23] = assay: Inhibition of AAPH-induced oxidative stress in human U373MG cells assessed as peroxy radical scavenging activity at 10 uM by ORAC assay; format: functional, cell-based; details: U-373MG ATCC
U373 MG [24] = assay: Induction of HO-1 activity in human U373MG cells assessed as bilirubin production per mg protein preincubated at 10 uM for 24 hrs before H2O2 challenge by fluorimetric method (reference value: 19.6 +/-3.5 pmol/hr/mg protein); format: functional, U-373MG ATCC
[25] = molecular target: T1, Nuclear factor erythroid 2-related factor 2 (Homo sapiens); assay: Induction of Nrf2-mediated SOD protein expression in H2O2-stimulated human U373MG cells preincubated at 5 uM for 24 hrs before H2O2 challenge by Western blot method; format: cell-based; details: U-373MG ATCC

Activity [3]	Activity [9]	Activity [14]	Structure (SMILES)	viability at 24 h, up to 10 µM [1] [%]	Activity (U373 MG [2]) [nmol]	Ratio (U373 MG [4])	Activity (U373 MG [5]) [nmol]	Activity (U373 MG [6]) [nmol/min]	Activity (U373 MG [7])	Activity (U373 MG [8]) [nmol/min]	Activity (U373 MG [10]) [nmol]	Activity (U373 MG [11]) [nmol/min]	Activity (U373 MG [12]) [IU]	Activity (U373 MG [13])	Activity (U373 MG [15]) [nmol/min]	Activity (U373 MG [16]) [nmol]	Activity (U373 MG [17])	Activity (U373 MG [18]) [IU]	Activity (U373 MG [19])	Activity (U-373MG ATCC)	other results
Active	Active	Active	C=CC(=C)CC[C@H]1[C@]2(C)CCC[C@](C)(CO)[C@H]2[C@H](O)C[C@]1(C)O [ANDALUSOL]	90	6.8	5.1	7	29.9	Active	82.4	0.51	19.7	24.7	inactive	23.9	36.3	inactive	23.7	Active	Active	Activity (U373 MG [20]): 39.8 nmol; Activity (U373 MG [21]): 89.1 nmol/min; Activity [22]: Active; Activity (U373 MG [23]): inactive; Activity (U373 MG [24]): 33.6 pmol/h; Activity [25]: Active
Active	Active	Active	CC1(C)CCC[C@H]2C1=CC[C@H]1C[C@@](C)([C@@H](O)CO)C[C@@H](O)[C@@]12C [LAGASCATRIOL]	90	7	3.8	7.1	27.1	Active	85.2	0.57	20.6	22.8	inactive	22.8	27.6	inactive	23.9	Active	Active	Activity (U373 MG [20]): 30 nmol; Activity (U373 MG [21]): 76.9 nmol/min; Activity [22]: Active; Activity (U373 MG [23]): inactive; Activity (U373 MG [24]): 32.6 pmol/h; Activity [25]: Active
inactive	inactive	inactive	CC1(C)CCC[C@]2(C)[C@@H]1C[C@H](O)[C@@]13C=C[C@@](CO)(C1)[C@H](O)C[C@@H]23 [CONCHITRIOL]	90	8.6	2	8.9	19.4	inactive	52.6	0.87	10.2	15	inactive	17.6	18	inactive	17.4	inactive	Active	Activity (U373 MG [20]): 19.8 nmol; Activity (U373 MG [21]): 59.5 nmol/min; Activity [22]: inactive; Activity (U373 MG [23]): inactive; Activity (U373 MG [24]): 17.8 pmol/h; Activity [25]: inactive
